Patent US9635859B2, “Pesticidal compositions and processes related thereto” (Dow AgroSciences LLC, priority 2012, dated 2017)

System: Beet Armyworm (Spodoptera exigua)
Test: Bioassays on BAW, 128-well diet tray assay
Type: in vivo
Settings: percent mortality, second instar larvae, 50 μg/cm^2 on artificial diet, five to seven days, 25° C.; Table 3
Procedure: Certain molecules disclosed in this document were tested against BAW and CEW and CL using procedures described in the following examples. In the reporting of the results, the “BAW & CEW & CL Rating Table” was used (See Table Section).
Bioassays on BAW (Spodoptera exigua)
Bioassays on BAW were conducted using a 128-well diet tray assay. one to five second instar BAW larvae were placed in each well (3 mL) of the diet tray that had been previously filled with 1 mL of artificial diet to which 50 μg/cm^2 of the test compound (dissolved in 50 μL of 90:10 acetone-water mixture) had been applied (to each of eight wells) and then allowed to dry. Trays were covered with a clear self-adhesive cover, and held at 25° C., 14:10 light-dark for five to seven days. Percent mortality was recorded for the larvae in each well; activity in the eight wells was then averaged. The results are indicated in the table entitled “Table 3: Assay Results” (See Table Section).

Structure (SMILES)	BAW Rating
O=C(CNC(=O)c1ccc(/C=C/C(c2cc(Cl)c(Cl)c(Cl)c2)C(F)(F)F)cc1Br)NCC(F)(F)F (centres unmarked) [AC66]	A (50-100)
N#Cc1cc(/C=C\C(c2cc(Cl)c(F)c(Cl)c2)C(F)(F)F)ccc1-n1cncn1 (centres unmarked) [DC46]	A (50-100)
O=C(NCc1ccc(Cl)nc1)c1ccc(/C=C/C(c2cc(Cl)c(Cl)c(Cl)c2)C(F)(F)F)cc1Cl (centres unmarked) [AC28]	A (50-100)
FC(F)(F)C(/C=C/c1ccc(-n2cncn2)cc1Cl)c1cc(Cl)cc(Cl)c1 (centres unmarked) [DC67]	A (50-100)
N#CCN1CCC(NC(=O)c2ccc(/C=C/C(c3cc(Cl)c(Cl)c(Cl)c3)C(F)(F)F)cc2Br)CC1 (centres unmarked) [AC107]	B (More than 0-Less than 50)
O=C(NCc1ccc(/C=C/C(c2cc(Cl)c(Cl)c(Cl)c2)C(F)(F)F)cc1C(F)(F)F)C1CC1 (centres unmarked) [CC22]	A (50-100)
Fc1c(Cl)cc(C(/C=C/c2ccc3c(c2)CCC3NCCC(F)(F)F)C(F)(F)F)cc1Cl (centres unmarked) [BC10, (E)-5-(3-(3,5-Dichloro-4-fluorophenyl)-4,4,4-trifluorobut-1-en-1-yl)-N-(3,3,3-trifluoropropyl)-2,3-dihydro-1H-inden-1-amine]	A (50-100)
Cc1cc(/C=C/C(c2cc(Cl)cc(Cl)c2)C(F)(F)F)ccc1C(=O)NCc1nnc(C2CC2)o1 (centres unmarked) [AC89, (E)-N-((5-Cyclopropyl-1,3,4-oxadiazol-2-yl)methyl)-4-(3-(3,5-dichlorophenyl)-4,4,4-trifluorobut-1-en-1-yl)-2-methylbenzamide]	A (50-100)
Cc1cc(/C=C/C(c2ccc(Cl)c(Cl)c2)C(F)(F)F)ccc1C(=O)NCc1ccc(Cl)nc1 (centres unmarked) [AC37]	A (50-100)
CCNC(=O)NCc1ccc(/C=C/C(c2cc(Cl)c(Cl)c(Cl)c2)C(F)(F)F)cc1Br (centres unmarked) [CC33]	A (50-100)
O=C(NCc1ccc(Cl)nc1)c1ccc(/C=C/C(c2cc(Cl)cc(Cl)c2)C(F)(F)F)cc1F (centres unmarked) [AC49]	A (50-100)
Cc1cc(/C=C/C(c2cc(Cl)cc(Cl)c2)C(F)(F)F)ccc1C(=O)NC1CS(=O)(=O)C1 (centres unmarked) [AC13]	A (50-100)
Cc1cc(/C=C\C(c2cc(Cl)cc(Cl)c2)C(F)(F)F)ccc1C(=O)NCC(=O)NC1CC1 (centres unmarked) [AC93]	A (50-100)
Cc1cc(/C=C/C(c2cc(Cl)c(F)c(Cl)c2)C(F)(F)F)ccc1C(=O)NCc1ccnc(Cl)c1 (centres unmarked) [AC54]	A (50-100)
O=C(CNC(=O)c1ccc(/C=C/C(c2cc(Cl)c(F)c(Cl)c2)C(F)(F)F)cc1F)NCC(F)(F)F (centres unmarked) [AC68]	A (50-100)
O=C(CC(F)(F)F)NC1CCCc2cc(/C=C/C(c3cc(Cl)c(Cl)c(Cl)c3)C(F)(F)F)ccc21 (centres unmarked) [BC5]	A (50-100)
O=C(CC(F)(F)F)NCc1ccc(/C=C/C(c2cc(Cl)cc(Cl)c2)C(F)(F)F)cc1Cl (centres unmarked) [CC9]	A (50-100)
COc1cc(/C=C/C(c2cc(Cl)c(F)c(Cl)c2)C(F)(F)F)ccc1C(=O)NC1CSC1 (centres unmarked) [AC71]	A (50-100)
O=C(NCc1ccc(Cl)nc1)c1ccc(/C=C/C(c2cc(Cl)c(F)c(Cl)c2)C(F)(F)F)cc1Br (centres unmarked) [AC63]	A (50-100)
Cc1cc(/C=C/C(c2cc(Cl)c(F)c(Cl)c2)C(F)(F)F)ccc1C(=O)NCC(=O)NCC(F)(F)F (centres unmarked) [AC69]	A (50-100)
O=C(NCc1ccc(/C=C/C(c2cc(Cl)c(Cl)c(Cl)c2)C(F)(F)F)cc1Cl)C1CC1 (centres unmarked) [CC11]	A (50-100)

Structure (SMILES)	BAW Rating
Cc1cc(/C=C/C(c2cc(Cl)c(Cl)c(Cl)c2)C(F)(F)F)ccc1C(=O)NCc1ccc(Cl)nc1 (centres unmarked) [AC22]	A (50-100)
Cc1cc(/C=C/C(c2cc(Cl)cc(Cl)c2)C(F)(F)F)ccc1C(=O)NCc1ccccn1 (centres unmarked) [AC12]	A (50-100)
O=C(NC1CSC1)c1ccc(/C=C/C(c2cc(Cl)c(Cl)c(Cl)c2)C(F)(F)F)cc1Cl (centres unmarked) [AC29]	A (50-100)
FC(F)(F)C(/C=C/c1ccc(-n2cncn2)cc1)c1ccc(Cl)cc1 (centres unmarked) [DC4]	A (50-100)
Cc1cc(/C=C/C(c2cc(Cl)cc(Cl)c2)C(F)(F)F)ccc1C(=O)NCC(=O)N(C)CC(F)(F)F (centres unmarked) [AC51]	A (50-100)
O=C(CNC(=O)c1ccc(/C=C/C(c2cc(Cl)c(Cl)c(Cl)c2)C(F)(F)F)cc1Cl)NCC(F)(F)F (centres unmarked) [AC64, (E)-2-Chloro-N-(2-oxo-2-((2,2,2-trifluoroethyl)amino)ethyl)-4-(4,4,4-trifluoro-3-(3,4,5-trichlorophenyl)but-1-en-1-yl)benzamide]	A (50-100)
CONC(=O)CNC(=O)c1ccc(/C=C/C(c2cc(Cl)c(Cl)c(Cl)c2)C(F)(F)F)cc1Br (centres unmarked) [AC110]	A (50-100)
FC(F)(F)c1cc(C(/C=C/c2ccc(-n3cncn3)cc2)C(F)(F)F)cc(C(F)(F)F)c1 (centres unmarked) [DC16]	A (50-100)
Cc1cc(/C=C/C(c2cc(Cl)cc(Cl)c2)C(F)(F)F)ccc1C(=S)NCc1ccc(Cl)nc1 (centres unmarked) [AC115, (E)-N-((6-Chloropyridin-3-yl)methyl)-4-(3-(3,5-dichlorophenyl)-4,4,4-trifluorobut-1-en-1-yl)-2-methylbenzothioamide]	A (50-100)
O=C(NCc1ncc(/C=C/C(c2cc(Cl)c(Cl)c(Cl)c2)C(F)(F)F)cc1Cl)C1CC1 (centres unmarked) [CC45]	A (50-100)
O=C(NC1CS(=O)(=O)C1)c1ccc(/C=C/C(c2cc(Cl)c(Cl)c(Cl)c2)C(F)(F)F)cc1Cl (centres unmarked) [AC30]	A (50-100)
CCc1cc(/C=C/C(c2cc(Cl)c(F)c(Cl)c2)C(F)(F)F)ccc1C(=O)NCC(=O)NCC(F)(F)F (centres unmarked) [AC80]	A (50-100)
Cc1cc(/C=C/C(c2cc(Cl)cc(Cl)c2)C(F)(F)F)ccc1C(=O)NCC(=O)NC1CC1 (centres unmarked) [AC40]	A (50-100)
C=CCNC(=S)NCc1ccc(/C=C/C(c2cc(Cl)c(Cl)c(Cl)c2)C(F)(F)F)cc1Cl (centres unmarked) [CC38]	A (50-100)
O=C(NCc1ccc(/C=C/C(c2cc(Cl)c(Cl)c(Cl)c2)C(F)(F)F)cc1)C1CC1 (centres unmarked) [CC5]	A (50-100)
N#Cc1cc(/C=C/C(c2cc(Cl)c(Cl)c(Cl)c2)C(F)(F)F)ccc1-n1cnc(N(C(=O)C2CC2)C(=O)C2CC2)n1 (centres unmarked) [DC42, (E)-N-(1-(2-Cyano-4-(4,4,4-trifluoro-3-(3,4,5-trichlorophenyl)but-1-en-1-yl)phenyl)-1H-1,2,4-triazol-3-yl)-N-(cyclopropanecarbonyl)cyclopropanecarboxamide]	A (50-100)
O=C(NCc1ccc(Cl)nc1)c1ccc(/C=C/C(c2cc(Cl)c(Cl)c(Cl)c2)C(F)(F)F)cc1Br (centres unmarked) [AC31]	A (50-100)
O=C(NCc1ccc(/C=C/C(c2cc(Cl)c(Cl)c(Cl)c2)C(F)(F)F)cc1Cl)N1CCOCC1 (centres unmarked) [CC34]	A (50-100)
CC(C)(C)OC(=O)CNC(=O)c1ccc(/C=C/C(c2cc(Cl)c(Cl)c(Cl)c2)C(F)(F)F)cc1Br (centres unmarked) [AC58]	A (50-100)
FC(F)(F)C(/C=C/c1ccc(-n2cncn2)c(Cl)c1)c1cc(Cl)c(Cl)c(Cl)c1 (centres unmarked) [DC49]	A (50-100)
